This note sets out measurements from PMC12561453, “Synthesis and Structure–Activity Relationship Study of 2-(amino)quinazolin-4(3H)-one Derivatives as Potential Inhibitors of Methicillin-Resistant Staphylococcus aureus (MRSA)” (Antibiotics, 2025).

Each structure is given as a SMILES string. pIC50: −log10 of the molar value. Converted amounts (≈) assume the structure as drawn. Read-outs that look alike come from different tables or passages of the source.

The test system of assay [1] is S. aureus ATCC25923. In words: Broth microdilution dose-response, S. aureus ATCC25923. In kind it is cell-based, Staphylococcus aureus. Particulars: for MIC50: OD600 after 18–24 h, read-out: ATCC25923 MIC50; for antibacterial activity (in words): ATCC25923. From the text:
(§1) The antistaphylococcal activities (MIC50) of the synthesized compounds were examined via a previously described broth microdilution method against two S. aureus strains: ATCC25923, a methicillin-sensitive reference strain, and JE2, a methicillin-resistant strain of the USA300 lineage (Figure 2, Table 1).
(§2) Staphylococcus aureus USA300, a methicillin-resistant strain, was obtained from the Nebraska Transposon Mutant Library. Staphylococcus aureus ATCC25923, a pan-drug-susceptible strain, was purchased from the American Type Culture Collection (ATCC) (Manassas, VA, USA). S. aureus strains were grown in Cation-Adjusted Mueller–Hinton broth (CAMHB) (Difco) at 37 °C. Bacterial strain stocks were stored in vials with 25% glycerol at −80 °C. For each experiment, overnight cultures were prepared by inoculating a frozen bacterial strain stock in 10 mL of CAMHB medium and incubating at 37 °C in a shaking incubator (180 rpm). For the preliminary screen and dose–response experiments, 100 µL of overnight culture was inoculated into 10 mL of fresh CAMHB and incubated for 3 h at 37 °C and 180 rpm.
(§3) Antibiotic susceptibility assay was tested according to modified Clinical and Laboratory Standards Institute (CLSI) laboratory guidelines for broth microdilution assays. S. aureus was cultured in CAMHB, and bacterial cells were prepared with an OD600 of 0.005. DRC plates were prepared by adding 40 µL of bacterial suspension to each well, where 10 µL of each compound had been dispensed for […] of two-fold serial dilutions starting at […]. After incubation of the plates at 37 °C for 18–24 h with 5% CO2, the growth of S. aureus was detected by measuring the OD600nm using an Ensight (Revvity) spectrometer (Revvity, Waltham, MA, USA).
(§4) Figure 2 In vitro antibacterial activities of 2-(amino)quinazolin-4(3H)-one derivatives. S. aureus ATCC25923 (blue) and USA300 JE (orange) strains were incubated with serial dilutions of 2-(amino)quinazolin-4(3H)-one derivatives (0.19–100 µM) for 18–24 h. The dose–responses were observed by measuring OD600nm. The plots were drawn from each group of strains with nonlinear curve fits.
Background: Dilution methods test growth across graded concentrations, often in twofold steps.

The subject of assay [2] is HepG2 cells. The assay can be described thus: In vitro cytotoxicity, HepG2 viability (resazurin). In kind it is cell-based, human. The settings on record: Homo sapiens, HepG2, 24 h, HepG2 cells, 24 h, resazurin; read-out: HepG2 IC50. The procedure: The in vitro cytotoxicity of the compounds was evaluated by measuring the viability of HepG2 cells, a human liver cell line, following treatment in a dose–response manner, as previously described. […] The efficacy window was calculated as the ratio of IC50 in HepG2 cells to MIC50 against JE2.
To test cytotoxicity with compounds, the human liver cell line HepG2 (ATCC #HB-8065) was used for the assay. HepG2 was cultured in DMEM with 10% fetal bovine serum (FBS) in a 96-well microplate at 37 °C and 5% CO2. HepG2 cells were seeded at a final density of 5 × 10^4 cells/well, and DMEM-containing diluted compounds were added and incubated on the plates at 37 °C in 5% CO2 for 24 h. After that, resazurin (final concentration, 0.1 mg/mL) was added to each well and incubated on the plates at 37 °C in 5% CO2 for 2 h. To detect the fluorescence at 530 nm excitation and 590 nm emission, an Ensight multimode plate reader was used (Revvity, Waltham, MA, USA).

For assay [3], the system named is S. aureus USA300 JE2 expressing GFP in H460 cells. The assay can be described thus: microbe, parasite or virus in culture. In kind it is cell-based, Staphylococcus aureus. Particulars: for MIC50: Staphylococcus aureus, USA300, 24 h, read-out: H460 Assay MIC50 (MIC50 ex vivo). An excerpt:
Staphylococcus aureus, including MRSA, can invade host cells and replicate intracellularly, which complicates treatment with current therapies. To evaluate the intracellular antibacterial activities of the selected compounds, the fifteen compounds tested for cytotoxicity were further assessed using a cell infection model based on H460 human lung epithelial cells, which mimic MRSA-mediated pneumonia. H460 cells were infected with the USA300 JE2 expressing green fluorescent protein (GFP) and subsequently treated with the compounds in a dose–response manner, along with three reference antibiotics: vancomycin, linezolid, and erythromycin. After 24 h of incubation, bacterial loads were quantified by measuring GFP fluorescence in each well. MIC50 values determined in the H460 infection model (MIC50 ex vivo) were generally higher than those obtained from the in vitro tests, likely due to either limited compound penetration into host cells or reduced antibacterial effect of the compounds against intracellular bacteria (Figure 3, Table 2). […] These findings underscore the potential of compound 6y as a promising lead for further development as a novel antistaphylococcal agent.
To see the ex vivo antimicrobial activity of the compound, the human lung carcinoma cell line H460 (ATCC #HTB-177) was used. The H460 cells were cultured in RPMI 1640 medium with 10% fetal bovine serum (FBS) and in a 96-well microplate at 37 °C and 5% CO2. Cell lines were cultured for 2 days, until they reached full confluence in the well. S. aureus (USA300-containing and pCM29-encoding GFP) was cultured in CAMHB with 10 µg/mL of chloramphenicol, and bacterial cells were harvested. After washing the bacterial cells with phosphate-buffered saline (PBS) and suspending them in RPMI, infected H460 cells with S. aureus (1 × 10^7 CFU) and incubated them for 2.5 h. Samples were washed three times with PBS. Then, cells were treated with gentamicin (50 µg/mL of gentamicin in RPMI) and incubated for 1 h. Samples were washed with PBS, RPMI-containing diluted compounds were added, and then they were incubated at 37 °C in 5% CO2 for 24 h. To detect the Green fluorescent protein (GFP) signal, an Ensight multimode plate reader and Opera Phenix Plus (Revvity, Waltham, MA, USA) were used.
Ex vivo infection model images were generated using the Opera Phenix Plus high-content imaging system. Images were obtained by a confocal microscope with a 20× water objective lens. To detect the bacteria fluorescence signal (GFP), the Alexa 488 channel (488 nm laser/500–550 filter, Thermo Fisher Scientific, Waltham, MA, USA) was used, and the brightfield channel was used for H460 cell images.
Figure 3 Antibacterial activities of 2-(amino)quinazolin-4(3H)-one derivatives in the H460 infection model. H460 cells were infected with S. aureus USA300 JE strain expressing GFP, followed by treatment with serial dilutions of 2-(amino)quinazolin-4(3H)-one derivatives. After incubation at 37 °C for 24 h with 5% CO2, fluorescence signals of the bacteria were detected at 488 nm/510 nm using a multilabel plate reader.

Assay [4] relates to S. aureus USA300 JE2. The assay can be described thus: Broth microdilution dose-response, S. aureus USA300 JE2 (MRSA). It counts as cell-based, Staphylococcus aureus. Particulars: for MIC50: OD600 after 18–24 h, read-out: USA300 MIC50; for antibacterial activity (in words): JE2.
Source text: as §1, §2, §3, §4

Setting [5] is: Staphylococcus aureus, ATCC25923, methicillin-sensitive strain.
Where [6] appears, read: Staphylococcus aureus, USA300, USA300 JE2, methicillin-resistant.
The mark [7] stands for this setting: USA300 JE2, methicillin-resistant.

As usually defined, the pIC50 is the negative decadic logarithm of the IC50, by convention in mol/L. Consider `O=c1[nH]c(Nc2cc(F)cc(F)c2)nc2cc(Cl)ccc12` [6q, 7-Chloro-2-((3,5-difluorophenyl)amino)quinazolin-4(3H)-one], for which the MIC50 in assay [1] (setting [5]) was 2.1 to 4.5 µM (≈ 0.646 to 1.38 µg/mL); in assay [1] (methicillin-sensitive strain), 2.1 µM (≈ 0.646 µg/mL); in assay [3], 8.7 µM (≈ 2.68 µg/mL); in assay [4] (setting [6]), 0.9 to 3 µM (≈ 0.277 to 0.923 µg/mL); in assay [4] (setting [7]), 0.9 µM (≈ 0.277 µg/mL). Moreover, in assay [2], the pIC50 was 4.45.
Consider `COc1cc2nc(Nc3cc(Cl)cc(Cl)c3)[nH]c(=O)c2cc1OC` [6c, 2-((3,5-Dichlorophenyl)amino)-6,7-dimethoxyquinazolin-4(3H)-one], for which the “antibacterial activity (in words)” value in assay [1] and in assay [4] was “complete abolition of antibacterial activity” in each case. Besides, the MIC50 in assay [1] (setting [5]) and in assay [4] (setting [6]) was above 100 µM in each case.
`O=c1[nH]c(Nc2ccccc2Cl)nc2cc(Cl)ccc12` [6t, 7-Chloro-2-((2-chlorophenyl)amino)quinazolin-4(3H)-one]: the “antibacterial activity (in words)” value in assay [1] and in assay [4] was “complete loss of activity” in each case. The MIC50 in assay [1] (setting [5]) and in assay [4] (setting [6]) was above 100 µM in each case.
Turning to `O=c1[nH]c(NCc2ccc(Cl)cc2Cl)nc2cc(Cl)ccc12` [6x, 7-Chloro-2-((2,4-dichlorobenzyl)amino)quinazolin-4(3H)-one], the MIC50 in assay [1] (setting [5]) is 2.1 to 4.5 µM (≈ 0.745 to 1.6 µg/mL); in assay [1] (methicillin-sensitive strain), 3.4 µM (≈ 1.21 µg/mL); in assay [3], 17.8 µM (≈ 6.31 µg/mL); in assay [4] (setting [6]) it was 0.9 to 3 µM (≈ 0.319 to 1.06 µg/mL); in assay [4] (setting [7]), 1.7 µM (≈ 0.603 µg/mL). Further, the pIC50 in assay [2] is 4.82.
Regarding `O=c1[nH]c(Nc2cccc(F)c2)nc2cc(Cl)ccc12` [6n, 7-Chloro-2-((3-fluorophenyl)amino)quinazolin-4(3H)-one], the pIC50 in assay [2] is 4.71. Moreover, in assay [3], the MIC50 amounted to 43.8 µM (≈ 12.7 µg/mL).
For the compound `COc1cccc(Nc2nc3cc(Cl)ccc3c(=O)[nH]2)c1` [6p, 7-Chloro-2-((3-methoxyphenyl)amino)quinazolin-4(3H)-one], the “antibacterial activity (in words)” value in assay [1] and in assay [4] was “Decreased antibacterial activities” in each case. Moreover, the MIC50 in assay [1] (setting [5]) is 35.1 µM (≈ 10.6 µg/mL); in assay [4] (setting [6]) it was 24.9 µM (≈ 7.51 µg/mL).
`COc1ccc2c(=O)[nH]c(Nc3cc(Cl)cc(Cl)c3)nc2c1` [6d, 2-((3,5-Dichlorophenyl)amino)-7-methoxyquinazolin-4(3H)-one]: the “antibacterial activity (in words)” value in assay [1] and in assay [4] was “complete abolition of antibacterial activity” in each case. Besides, the MIC50 in assay [1] (setting [5]) and in assay [4] (setting [6]) was above 100 µM each time.
`O=c1[nH]c(Nc2ccc(F)cc2F)nc2cc(Cl)ccc12` [6o, 7-Chloro-2-((2,4-difluorophenyl)amino)quinazolin-4(3H)-one]: the “antibacterial activity (in words)” value in assay [1] and in assay [4] was “complete loss of activity” throughout. Also, the MIC50 in assay [1] (setting [5]) and in assay [4] (setting [6]) was above 100 µM each time.
In the case of `O=c1[nH]c(Nc2cc(Cl)cc(Cl)c2)nc2c(Cl)c(Cl)ccc12` [6a, 7,8-Dichloro-2-((3,5-dichlorophenyl)amino)quinazolin-4(3H)-one], the MIC50 in assay [1] (setting [5]) stood at 10.8 µM (≈ 4.05 µg/mL); in assay [4] (setting [6]) it was 6.9 µM (≈ 2.59 µg/mL).
On to `O=c1[nH]c(Nc2cc(Cl)cc(Cl)c2)nc2c(Cl)ccc(Cl)c12` [compound 1, 5,8-Dichloro-2-((3,5-dichlorophenyl)amino)quinazolin-4(3H)-one], for which the MIC50 in assay [1] (setting [5]) was determined as 3.9 µM (≈ 1.46 µg/mL); in assay [4] (setting [6]), 12.9 µM (≈ 4.84 µg/mL).
On to `CC(=O)NC[C@H]1CN(c2ccc(N3CCOCC3)c(F)c2)C(=O)O1` [linezolid, reference compound], for which, in assay [3] (H460 cells infected with USA300 JE2-GFP, 24 h, GFP fluorescence), the “H460 Assay MIC50 (MIC50 ex vivo)” value turned out to be 1.2 µM.
As to `O=c1[nH]c(Nc2ccccc2)nc2cc(Cl)ccc12` [6m, 7-Chloro-2-(phenylamino)quinazolin-4(3H)-one], the “antibacterial activity (in words)” value in assay [1] and in assay [4] was “complete loss of activity” throughout. The MIC50 in assay [1] (setting [5]) and in assay [4] (setting [6]) was above 100 µM each time.
As to `O=c1[nH]c(Nc2cc(Cl)cc(Cl)c2)nc2cc(N3CCOCC3)ccc12` [6b, 2-((3,5-Dichlorophenyl)amino)-7-morpholinoquinazolin-4(3H)-one], the “antibacterial activity (in words)” value in assay [1] and in assay [4] was “complete abolition of antibacterial activity” in each case. For the same compound, the MIC50 in assay [1] (setting [5]) and in assay [4] (setting [6]) was above 100 µM throughout.
In the case of `O=c1[nH]c(Nc2cccc(C(F)(F)F)c2)nc2cc(Cl)ccc12` [6r, 7-Chloro-2-((3-(trifluoromethyl)phenyl)amino)quinazolin-4(3H)-one], the MIC50 in assay [1] (setting [5]) was 2.1 to 4.5 µM (≈ 0.713 to 1.53 µg/mL); in assay [1] (methicillin-sensitive strain), 3.1 µM (≈ 1.05 µg/mL); in assay [3], 35.8 µM (≈ 12.2 µg/mL). Moreover, the pIC50 in assay [2] was 4.82.
Turning to `O=c1[nH]c(NCC2CCCCC2)nc2cc(Cl)ccc12` [6s, 7-Chloro-2-((cyclohexylmethyl)amino)quinazolin-4(3H)-one], the “antibacterial activity (in words)” value in assay [1] and in assay [4] was “Decreased antibacterial activities” in each case. Also, the MIC50 in assay [1] (setting [5]) was 35.5 µM (≈ 10.4 µg/mL); in assay [4] (setting [6]), 18.1 µM (≈ 5.28 µg/mL).
Turning to `O=c1[nH]c(NCc2cc(F)cc(F)c2)nc2cc(Cl)ccc12` [6w, 7-Chloro-2-((3,5-difluorobenzyl)amino)quinazolin-4(3H)-one], the “antibacterial activity (in words)” value in assay [1] and in assay [4] was “complete loss of activity” each time. Besides, the MIC50 in assay [1] (setting [5]) and in assay [4] (setting [6]) was above 100 µM throughout.
